Test results published in ChEMBL document CHEMBL1201862, “PubChem BioAssay data set” (2004).
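Assay format: 96-well plates, 48-hour exposure. At the GI50, growth is halved.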 The source made the active and inactive calls. Cut-off read from the data, not from the text of the source: active = GI50 up to about 1.1 µM and inactive = higher.

Experiments:
Test in all cases: inhibition of tumour cell growth, NCI panel, 48 h
[1] = tested on: TK-10
[2] = tested on: COLO 205
[3] = tested on: IGROV-1
[4] = tested on: NCI-H460
[5] = tested on: SF-268
[6] = tested on: A549
[7] = tested on: NCI-H226
[8] = tested on: NCI/ADR-RES
[9] = tested on: EKVX
[10] = tested on: NCI-H23
[11] = tested on: HOP-62
[12] = tested on: HOP-92
[13] = tested on: T47D
[14] = tested on: SR
[15] = tested on: OVCAR-4
[16] = tested on: CAKI-1
[17] = tested on: RXF 393
[18] = tested on: HT-29
[19] = tested on: SK-MEL-2
[20] = tested on: SW-620

Measured: GI50

Cc1cc(S(=O)(=O)Nc2nc3ccccc3nc2-c2cccc([N+](=O)[O-])c2)c(S)cc1Cl
inactive: [1] 35.2 µM | [2] 16.3 µM | [3] 13.2 µM | [4] 11 µM | [5] 25.9 µM | [6] 16.1 µM | [7] 21.4 µM | [8] 19.9 µM | [9] 22.1 µM | [10] 17.1 µM | [11] 20.2 µM | [12] 17.9 µM | [13] 17.2 µM | [14] 20.8 µM | [15] 27.5 µM | [16] 18.3 µM | [17] 33.7 µM | [18] 17.9 µM | [19] 21.9 µM

CC(=O)N(C(C)=O)n1c(Cc2ccc(C)cc2)nn(C(C)=O)c1=O
inactive: [1] > 100 µM | [20] > 100 µM | [2] > 100 µM | [3] > 100 µM | [4] > 100 µM | [5] > 100 µM | [6] > 100 µM | [7] > 100 µM | [8] > 100 µM | [9] > 100 µM | [10] > 100 µM | [11] > 100 µM | [12] > 100 µM | [13] > 100 µM | [14] > 100 µM | [15] > 100 µM | [16] > 100 µM | [18] > 100 µM | [19] > 100 µM

Brc1ccc(/N=N/N2CCCCC2)cc1
inactive: [1] 59.2 µM | [20] 52.7 µM | [2] 69.3 µM | [3] 44.6 µM | [4] 45 µM | [5] 66.1 µM | [7] > 100 µM | [8] 51.3 µM | [9] 40.1 µM | [10] 62.1 µM | [11] 67 µM | [12] 33.6 µM | [13] 42.3 µM | [14] 16.6 µM | [15] 74.8 µM | [16] 88.1 µM | [17] 38.3 µM | [19] 20.3 µM

CCOC(=O)COc1cc(-c2ccccc2F)nc2cc3c(cc12)OCO3
inactive: [1] > 100 µM | [20] > 100 µM | [2] > 100 µM | [3] 90.8 µM | [5] > 100 µM | [6] > 100 µM | [7] > 100 µM | [8] > 100 µM | [9] 85.5 µM | [10] > 100 µM | [11] > 100 µM | [12] 19.7 µM | [13] 79.8 µM | [14] > 10 µM | [16] > 100 µM | [17] > 100 µM | [18] > 100 µM | [19] > 100 µM

CC1=CC(=O)c2ccc(C)cc2C1=O [CHIMAPHILIN]
inactive: [1] 19 µM | [20] 11.8 µM | [2] 16.3 µM | [3] 15.1 µM | [4] 14.2 µM | [5] 14.3 µM | [6] 15.9 µM | [7] 13.8 µM | [8] 10.4 µM | [9] 7.1 µM | [10] 5.22 µM | [11] 17.4 µM | [12] 1.85 µM | [13] 2.91 µM | [14] 3.4 µM | [15] 16.7 µM | [16] 5.78 µM | [18] 38.6 µM | [19] 16.2 µM

CC(C)(C)OC(=O)NC(Cc1ccc([N+](=O)[O-])cc1)C(=O)NC(CCCCNC(=O)OCc1ccccc1)C(=O)ON1C(=O)CCC1=O (stereo not drawn)
inactive: [1] > 100 µM | [20] 26.7 µM | [2] > 100 µM | [3] > 100 µM | [4] > 100 µM | [5] 44.2 µM | [6] > 100 µM | [7] > 100 µM | [8] > 100 µM | [9] > 100 µM | [10] > 100 µM | [11] > 100 µM | [12] > 100 µM | [13] > 10 µM | [14] 49.4 µM | [15] > 100 µM | [16] > 100 µM | [17] > 100 µM | [18] > 100 µM

COc1ccc(C(SCCO)(c2ccc(OC)cc2)c2ccc(OC)cc2)cc1
inactive: [1] 21.8 µM | [20] 15 µM | [2] 11.2 µM | [4] 15 µM | [5] 17.3 µM | [6] 17.7 µM | [7] 13.9 µM | [8] 13.6 µM | [9] 10.7 µM | [10] 17.7 µM | [11] 16.4 µM | [12] 10.1 µM | [13] 6.03 µM | [14] 3.4 µM | [15] 21.6 µM | [16] 20.6 µM | [17] 12 µM | [18] 17 µM | [19] 14.1 µM

CCN(CC)CCCNc1n[n+]([O-])c2ccccc2[n+]1[O-]
inactive: [1] 4.07 µM | [20] 15.1 µM | [2] 11.2 µM | [3] 5.73 µM | [4] 3.99 µM | [5] 26.4 µM | [6] 12.6 µM | [7] 20.5 µM | [8] 42.4 µM | [10] 11.6 µM | [12] 27.1 µM | [13] 14.3 µM | [14] 13.7 µM | [15] 23.7 µM | [16] 31.8 µM | [17] 13 µM | [18] 11.1 µM | [19] 4.74 µM

NC(Cc1ccc(CP(=O)(O)O)cc1)C(=O)O (stereo not drawn)
inactive: [1] > 100 µM | [20] > 100 µM | [2] > 100 µM | [3] > 100 µM | [4] > 100 µM | [5] > 100 µM | [6] > 100 µM | [8] > 100 µM | [9] > 100 µM | [10] > 100 µM | [12] > 100 µM | [13] > 100 µM | [14] > 100 µM | [15] > 100 µM | [16] 11.5 µM | [17] > 100 µM | [18] > 100 µM | [19] > 100 µM

CC(=O)OC(OC(C)=O)c1c2ccccc2cc2ccccc12
inactive: [1] 20.4 µM | [20] 3.18 µM | [2] 17.8 µM | [3] 21.2 µM | [4] 14.6 µM | [5] 18.4 µM | [6] 19.1 µM | [7] 17.9 µM | [8] 8.34 µM | [9] 20 µM | [10] 25.1 µM | [12] 21.4 µM | [13] 17.2 µM | [14] 9.53 µM | [16] 30.5 µM | [17] 13.3 µM | [18] 13.4 µM

Nc1nc(N)c2ncn(Cc3ccccc3CO)c2n1
inactive: [1] > 100 µM | [20] > 100 µM | [2] > 100 µM | [3] > 100 µM | [4] > 100 µM | [5] > 100 µM | [6] > 100 µM | [7] > 100 µM | [8] > 100 µM | [9] > 100 µM | [10] > 100 µM | [11] > 100 µM | [12] > 100 µM | [13] > 100 µM | [14] > 100 µM | [15] > 100 µM | [16] > 100 µM | [18] > 100 µM | [19] > 100 µM
